Values quoted from earlier work in publication PMC2409929 (British Journal of Cancer, 2004).
Marks after values point to notes of the source that are not given here.

Legend:
topo-isomerase I = system: topo-isomerase I; set-up: method as in Slatter et al, 1997; details: in vitro models; ref Slatter et al, 1997; cited from earlier work
[1] = N=6, mean±s.d., ref 16 (Herben et al, 1999), cited from earlier work
[2] = after irinotecan 140 mg m^−2: 10 mg m^−2 as 14-day prolonged infusions

## CCc1c2c(nc3ccc(O)cc13)-c1cc3c(c(=O)n1C2)COC(=O)[C@]3(O)CC [SN-38, 7-ethyl-10-hydroxycamptothecin]
topo-isomerase I
  Potency as topo-isomerase I inhibitor relative to parent compound (irinotecan): 100–1000 times
[1]; 140 mg m^−2: 10 mg m^−2 irinotecan as 14-day prolonged infusions
  Metabolic ratio (SN-38 AUC over irinotecan AUC): 0.12±0.02 ^b
[1]; [2]
  SN-38 AUC: 1.4 ± 0.3 µM·h
  SN-38 AUCc (AUC per cycle): 4.2 ± 0.9 µM·h
